This note sets out measurements from ChEMBL document CHEMBL1128134, “Characterization of a continuous fluorogenic assay for calpain I. Kinetic evaluation of peptide aldehydes, halomethyl ketones and (acyloxy)methyl ketones as inhibitors of the enzyme” (Bioorg Med Chem Lett, 1995).

Square brackets hold non-standard residues; d marks the D form. Peptide text beside a SMILES is read from it. * marks the point of attachment. ξ: configuration not given here. 1Nal = N[C@@H](Cc1cccc2ccccc12)C(=O)O; hPhe = N[C@@H](CCc1ccccc1)C(=O)O; Ile(3ξ) = CCC(C)[C@H](N)C(=O)O; ξTle = CC(C)(C)C(N)C(=O)O; Cbz = O=C(OCc1ccccc1)*

Series [1] has as its target T1, Calpain-1 catalytic subunit (Homo sapiens) (UniProt P07384).
T1 sequence (whole entry): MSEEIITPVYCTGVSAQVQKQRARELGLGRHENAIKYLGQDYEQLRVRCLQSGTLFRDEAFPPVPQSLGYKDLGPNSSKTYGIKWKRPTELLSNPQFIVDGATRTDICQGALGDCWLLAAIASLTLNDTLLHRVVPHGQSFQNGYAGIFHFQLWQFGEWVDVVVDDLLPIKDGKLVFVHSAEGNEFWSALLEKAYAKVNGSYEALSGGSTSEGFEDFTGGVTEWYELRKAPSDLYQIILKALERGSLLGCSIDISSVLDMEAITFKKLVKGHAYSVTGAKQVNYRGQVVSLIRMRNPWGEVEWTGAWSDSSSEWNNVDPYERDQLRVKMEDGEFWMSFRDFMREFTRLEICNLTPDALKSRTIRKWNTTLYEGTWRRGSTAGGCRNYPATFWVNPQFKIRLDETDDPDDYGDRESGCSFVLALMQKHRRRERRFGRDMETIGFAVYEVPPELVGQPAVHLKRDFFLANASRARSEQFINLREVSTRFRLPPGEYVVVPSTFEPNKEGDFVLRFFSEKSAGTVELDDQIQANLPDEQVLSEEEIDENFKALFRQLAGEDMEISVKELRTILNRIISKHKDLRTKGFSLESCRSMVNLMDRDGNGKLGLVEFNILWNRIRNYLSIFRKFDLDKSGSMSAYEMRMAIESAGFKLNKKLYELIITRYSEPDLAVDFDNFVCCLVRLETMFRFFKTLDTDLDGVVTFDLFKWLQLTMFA
The experiment in a line: Rate of catalysis as a measure of ability to serve as substrate of Calpain.

Series [2] is described as follows: Ratio of rate of catalysis to Michaelis-Menten constant was determined.
Another series has as its target Calpain 1 (Homo sapiens, UniProt P07384). Nature of the series: Inhibition of Calpain 1 by [3H]acetyl-casein assay. The class given is protein-complex assay.
In a further series the target is Calpain 1 (Homo sapiens) (UniProt P04632+P07384). Nature of the series: Apparent second order rate constant for inhibition of calpain-1 by fluorogenic assay. It counts as protein-complex assay.
For series [3], the target named is T1, Calpain-1 catalytic subunit (Homo sapiens). The experiment in a line: Compound was tested for apparent second order rate constant for inhibition of calpain I in an endpoint (non-continuous) calpain assay.
Substrate in series [4]: CC(C)C[C@H](NC(=O)OCc1ccccc1)C(=O)N[C@@H](CCCN=C(N)N)C(=O)Nc1ccc2c(C(F)(F)F)cc(=O)oc2c1
Nature of the series: (§1) Michaelis-Menten kinetics value as a measure of ability to serve as substrate of Calpain.

Substrate in series [5]: COc1ccc2cccc(NC(=O)[C@@H](CCCN=C(N)N)NC(=O)[C@H](CC(C)C)NC(=O)[C@@H](NC(=O)OCc3ccccc3)C(C)C)c2c1
Described as §1.

Substrate in series [6]: COc1ccc2cccc(NC(=O)[C@H](CCCN=C(N)N)NC(=O)[C@H](CC(C)C)NC(=O)OCc3ccccc3)c2c1
The description is as §1.

Substrate in series [7]: Cc1cc(=O)oc2cc(NC(=O)[C@@H](CCCCN)NC(=O)[C@H](CC(C)C)NC(=O)[C@@H](NC(=O)OC(C)(C)C)C(C)C)ccc12
The description is as §1.

Substrate in series [8]: Cc1cc(=O)oc2cc(NC(=O)[C@@H](Cc3ccc(O)cc3)NC(=O)[C@H](NC(=O)[C@H](CC(C)C)NC(=O)[C@H](CC(C)C)NC(=O)CCC(=O)O)C(C)C)ccc12
The series is described as §1.

Substrate in series [9]: Cc1cc(=O)oc2cc(NC(=O)[C@H](CCCN=C(N)N)NC(=O)[C@H](CC(C)C)NC(=O)OCc3ccccc3)ccc12
Described as §1.

Substrate in series [10]: Cc1cc(=O)oc2cc(NC(=O)[C@H](NC(=O)[C@H](CC(C)C)NC(=O)[C@H](CC(C)C)NC(=O)CCC(=O)O)C(C)C)ccc12
The series is described as §1.

Sequence of Calpain 1 (P04632 whole entry, one chain of several): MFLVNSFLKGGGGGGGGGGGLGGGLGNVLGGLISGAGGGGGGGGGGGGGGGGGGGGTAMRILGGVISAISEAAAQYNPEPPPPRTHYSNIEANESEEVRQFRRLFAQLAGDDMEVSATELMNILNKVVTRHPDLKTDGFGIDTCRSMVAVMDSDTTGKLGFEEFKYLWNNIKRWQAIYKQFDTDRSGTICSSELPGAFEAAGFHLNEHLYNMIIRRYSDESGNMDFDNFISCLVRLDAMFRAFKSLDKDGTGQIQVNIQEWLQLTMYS

Regarding `CC(C)C[C@H](NC(=O)OCc1ccccc1)C(=O)N[C@@H](CCCN=C(N)N)C(=O)Nc1ccc2c(C(F)(F)F)cc(=O)oc2c1`, the k cat in [1] was 0.07 s⁻¹. The Ratio in series [2] was found to be 153 M⁻¹ s⁻¹.
`Cc1cc(=O)oc2cc(NC(=O)[C@@H](Cc3ccc(O)cc3)NC(=O)[C@H](NC(=O)[C@H](CC(C)C)NC(=O)[C@H](CC(C)C)NC(=O)CCC(=O)O)C(C)C)ccc12`: the k cat in series [1] is 0.42 s⁻¹. For the same molecule, in series [2], the Ratio was determined as 262 M⁻¹ s⁻¹.
As usually defined, the IC50 is the concentration needed to halve the response being measured. The low end stands for greater potency in that assay, the high end for weaker potency in that assay. In turn, `CC(C)[C@H](NC(=O)OCc1ccccc1)C(=O)N[C@H](C=O)CCc1ccccc1` (Cbz-Val-[hPhe]-aldehyde) returned a 50% inhibitory concentration (IC50) on Calpain 1 of 100 nM.
`O=C[C@H](Cc1ccccc1)NC(=O)[C@H](Cc1ccccc1)NC(=O)OCc1ccccc1` (Cbz-Phe-Phe-aldehyde) yielded an IC50 on Calpain 1 of 400 nM.
In the case of `COc1ccc2cccc(NC(=O)[C@H](CCCN=C(N)N)NC(=O)[C@H](CC(C)C)NC(=O)OCc3ccccc3)c2c1`, the k cat in [1] was 0.52 s⁻¹. In addition, the Ratio in series [2] was 1400 M⁻¹ s⁻¹.
For the molecule `Cc1cc(=O)oc2cc(NC(=O)[C@H](NC(=O)[C@H](CC(C)C)NC(=O)[C@H](CC(C)C)NC(=O)CCC(=O)O)C(C)C)ccc12`, the k cat in series [1] worked out at 0.29 s⁻¹. Moreover, in [2], the Ratio worked out at 141 M⁻¹ s⁻¹.
Regarding `Cc1cc(=O)oc2cc(NC(=O)[C@H](CCCN=C(N)N)NC(=O)[C@H](CC(C)C)NC(=O)OCc3ccccc3)ccc12`, the k cat in series [1] stood at 0.02 s⁻¹. The Ratio in series [2] was 105 M⁻¹ s⁻¹.
Molecule `CC(C)C[C@H](NC(=O)OCc1ccccc1)C(=O)N[C@H](C=O)Cc1ccc(O)cc1` (Cbz-Leu-Tyr-aldehyde) showed a 50% inhibitory concentration (IC50) against Calpain 1 of 20 nM.
For `CC(C)[C@H](NC(=O)OCc1ccccc1)C(=O)N1CCC[C@H]1C=O` (Cbz-Val-Pro-aldehyde), the IC50 on Calpain 1 was greater than 1000 nM.
Still for that read-out and setting: then `COc1ccc(C[C@@H](C=O)NC(=O)[C@@H](NC(=O)OCc2ccccc2)C(C)C)cc1` (Cbz-Val-Tyr(Me)-aldehyde), with 30 nM.
In the case of `CC(C)C[C@H](NC(=O)[C@H]1O[C@@H]1C(=O)O)C(=O)NCCCCN=C(N)N`, the k obs / 1 was 2500 M⁻¹ s⁻¹ at Calpain 1 (Homo sapiens) and 7500 M⁻¹ s⁻¹ in series [3].
Consider `CC(C)[C@H](NC(=O)OCc1ccccc1)C(=O)N[C@H](C=O)Cc1ccc(O)cc1` (Cbz-Val-Tyr-aldehyde), for which the 50% inhibitory concentration (IC50) against Calpain 1 amounted to 25 nM.
The same measure, in the same setting: then `CC(C)[C@H](NC(=O)OCc1ccccc1)C(=O)N[C@H](C=O)Cc1cccc2ccccc12` (Cbz-Val-[1Nal]-aldehyde), with 100 nM; and `CCC(C)[C@H](NC(=O)OCc1ccccc1)C(=O)N[C@H](C=O)Cc1ccc(O)cc1` (stereo partly specified) (Cbz-[Ile(3ξ)]-Tyr-aldehyde), with 55 nM; and `CC(C)(C)C(NC(=O)OCc1ccccc1)C(=O)N[C@H](C=O)Cc1ccccc1` (stereo partly specified) (Cbz-[ξTle]-Phe-aldehyde), with 500 nM.
On to `Cc1cc(=O)oc2cc(NC(=O)[C@@H](CCCCN)NC(=O)[C@H](CC(C)C)NC(=O)[C@@H](NC(=O)OC(C)(C)C)C(C)C)ccc12`, for which the k cat in [1] stood at 0.49 s⁻¹. For the same molecule, the Ratio in series [2] worked out at 83 M⁻¹ s⁻¹.
As to `O=C[C@H](Cc1ccccc1)NC(=O)[C@H](Cc1cccc2ccccc12)NC(=O)OCc1ccccc1` (Cbz-[1Nal]-Phe-aldehyde), the IC50 at Calpain 1 is greater than 1000 nM.

B1: Calpain-1 catalytic subunit (Homo sapiens), P07384 (protein)
chain: T1 sequence (whole entry)
What is called Km is the substrate concentration at which the rate is half of its maximum. As for B1, the Km in [4] is 460 µM; in series [5], 100 µM; in series [6], 370 µM; in series [7], 5.9 mM; in series [8] it was 160 µM; in series [9], 190 µM. Also, the Michaelis constant (Km) in series [10] was 200 µM.
